Reference: patent US20240148821A1, “PHARMACEUTICAL USE OF CYCLIC PEPTIDE COMPOUND” (CHUGAI SEIYAKU KABUSHIKI KAISHA, priority 2021, published 2024)
Numbered stars: 1 amine (or outer) side, 2 acyl side, 3 side chain; on linkers, the order of the positions; unused ones are H or OH. Bridge positions count the residues as written; N and C are the ends. Square brackets hold non-standard residues; d marks the D form. Peptide text beside a SMILES is read from it. * marks the point of attachment. hPhe(3,5-F2-4-CF3) = N[C@@H](CCc1cc(F)c(C(F)(F)F)c(F)c1)C(=O)O; hPhe(3-Cl-4-CF3) = N[C@@H](CCc1ccc(C(F)(F)F)c(Cl)c1)C(=O)O; hPhe(3-F,4-CF3) = N[C@@H](CCc1ccc(C(F)(F)F)c(F)c1)C(=O)O; NEtPhe(4-CF3) = CCN[C@@H](Cc1ccc(C(F)(F)F)cc1)C(=O)O; NMePhe(4-CF3) = CN[C@@H](Cc1ccc(C(F)(F)F)cc1)C(=O)O; 3Oxa8azabicyclo(3.2.1)octane = C1CC2COCC1N2*; NEtPhe(4-Me) = CCN[C@@H](Cc1ccc(C)cc1)C(=O)O; NMePhe(4-Me) = CN[C@@H](Cc1ccc(C)cc1)C(=O)O; NMeNle(6-CHF2) = CN[C@@H](CCCCC(F)F)C(=O)O; NMedβ3hAla = C[C@H](CC(=O)[*:2])N(C)[*:1]; NMeAla(cPent) = CN[C@@H](CC1CCCC1)C(=O)O; NMeGly(cPent) = CN[C@H](C(=O)O)C1CCCC1; NMeCha = CN[C@@H](CC1CCCCC1)C(=O)O; Hyp = O=C(O)[C@@H]1C[C@@H](O)CN1; NMeChg = CN[C@H](C(=O)O)C1CCCCC1; NMeI = CC[C@H](C)[C@H](NC)C(=O)O; NMeD = CN[C@@H](CC(=O)O)C(=O)O; NMeL = CN[C@@H](CC(C)C)C(=O)O; Chg = N[C@H](C(=O)O)C1CCCCC1; NMeV = CN[C@H](C(=O)O)C(C)C; d(β3hA) = C[C@@H](N)CC(=O)O; NMeS = CN[C@@H](CO)C(=O)O; NMeA = CN[C@@H](C)C(=O)O; NMeAib = CNC(C)(C)C(=O)O; Piperidide = C1CCN(*)CC1; Pra = C#CC[C@H](N)C(=O)O; Pyrrolidide = C1CCN(*)C1; Ac5c = NC1(C(=O)O)CCCC1; Aze = O=C(O)[C@@H]1CCN1; Ac4c = NC1(C(=O)O)CCC1; Ac3c = NC1(C(=O)O)CC1; Aib = CC(C)(N)C(=O)O; Isopentyl = CC(C)CC*; Sar = CNCC(=O)O

Tests used:
[1] = biological target: protein-protein interaction between Kras and SOS1 (biotin-tagged human Kras loaded with GDP, His-tagged human SOS1) (Homo sapiens (Human), UniProt P01116, G12D); assay: Protein-protein interaction inhibition between Kras and SOS1 (KrasG12D-SOS PPI) using AlphaScreen; type: biochemical; settings: AlphaScreen; biotin-tagged human Kras loaded with GDP, His-tagged human SOS1; read-out: KRAS G12D-SOS PPI IC50;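 also: kras produced in E. coli, Ni-coupled donor beads and streptavidin acceptor beads, excitation 680 nm with emission detected at 520–620 nm via singlet oxygen transfer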
[2] = system: Human pancreatic cancer cell line AsPC-1 (G12D mutation Kras); assay: AsPC-1 cell growth inhibition (AsPC-1 CGI); type: cell-based; settings: read-out: AsPC-1 cell growth inhibition, 50% growth inhibitory concentration (IC50 value); 96 hours, CellTiter-Glo, values classified in ranges
Experimental: Test compounds were serially dilated with dimethyl sulfoxide, and 200 nL was then dispensed to a U-bottom 96-well plate using Labcyte Echo. […] The cell suspension was dispensed to a. plate containing a test compound at 100 μL per well and incubated at 37° C. in a 5% carbon dioxide gas incubator. 96 hours later, 80 μL of CellTiter-Glo (Promega) was added to each well and fluorescence was measured.

Row | Structure (SMILES) | IC50 [1] [nM] | IC50 [2] [nM]
1 | CCO[C@@H]1C[C@H]2C(=O)NC3(CCC3)C(=O)N(C)[C@@H]([C@@H](C)CC)C(=O)N(C)[C@H](C)CC(=O)N(C)[C@@H](CC(C)C)C(=O)N[C@@H]([C@@H](C)CC)C(=O)N(C)[C@@H](C)C(=O)N3CC[C@H]3C(=O)N(CC)[C@@H](Cc3ccc(C(F)(F)F)cc3)C(=O)N(C)CC(=O)N[C@@H](CCc3ccc(C(F)(F)F)c(Cl)c3)C(=O)N2C1 [Compound 547] (cyclo([Ac4c][NMeI][NMedβ3hAla][NMeL]I[NMeA][Aze][NEtPhe(4-CF3)][Sar][hPhe(3-Cl-4-CF3)][Hyp](Et))) | 1 | ≤ 20
2 | CC[C@H](C)[C@@H]1NC(=O)[C@H](CC(C)C)N(C)C(=O)C[C@@H](C(=O)N2CCCCC2)N(C)C(=O)[C@H](CC(C)C)N(C)C(=O)C2(CCCC2)NC(=O)[C@@H]2C[C@@H](O)CN2C(=O)[C@H](CCc2ccc(C(F)(F)F)c(F)c2)NC(=O)CN(C)C(=O)[C@H](CC2CCCCC2)N(C)C(=O)CN(C)C(=O)CN(C)C1=O [Compound 875, (3S,9S,18S,21S,25S,28S,34S,36R)-9-(cyclohexylmethyl)-3-[2-[3-fluoro-4-(trifluoromethyl)phenyl]ethyl]-36-hydroxy-21,28-diisobutyl-7,10,13,16,22,26,29-heptamethyl-18-[(1S)-1-methylpropyl]-25-(piperidine-1-carbonyl)spiro[1,4,7,10,13,16,19,22,26,29,32-undecazabicyclo[32.3.0]heptatriacontane-31,1′-cyclopentane]-2,5,8,11,14,17,20,23,27,30,33-undecone] ([NMeL]I[Sar][Sar][NMeCha][Sar][hPhe(3-F,4-CF3)][Hyp][Ac5c][NMeL][NMeD]-Piperidide; lactam N-11) | 3.1 | > 500
3 | CC[C@H](C)[C@@H]1NC(=O)[C@H](CC(C)C)N(C)C(=O)C[C@@H](C(=O)N2C3CCC2COC3)N(C)C(=O)[C@H](C2CCCC2)N(C)C(=O)C2(CCCC2)NC(=O)[C@@H]2CCCN2C(=O)[C@H](CCc2ccc(C(F)(F)F)c(Cl)c2)NC(=O)CN(C)C(=O)[C@H](Cc2ccc(C(F)(F)F)cc2)N(C)C(=O)[C@@H]2CCN2C(=O)[C@H](C)N(C)C1=O [Compound 422] ([NMeL]I[NMeA][Aze][NMePhe(4-CF3)][Sar][hPhe(3-Cl-4-CF3)]P[Ac5c][NMeGly(cPent)][NMeD]-{3Oxa8azabicyclo(3.2.1)octane}; lactam N-11) | 0.87 | ≤ 20
4 | CC(C)C[C@H]1C(=O)N[C@@H](C2CCCCC2)C(=O)N(C)CC(=O)N(C)CC(=O)N(C)[C@@H](CCCCC(F)F)C(=O)N(C)CC(=O)N[C@@H](CCc2ccc(C(F)(F)F)c(F)c2)C(=O)N(C)[C@@H](CC(C)C)C(=O)NC(C)(C)C(=O)N(C)[C@@H](CC(C)C)C(=O)N[C@H](C)CC(=O)N1C [Compound 1460] (cyclo([Aib][NMeL][d(β3hA)][NMeL][Chg][Sar][Sar][NMeNle(6-CHF2)][Sar][hPhe(3-F,4-CF3)][NMeL])) | 130 | > 500
5 | CCO[C@@H]1C[C@H]2C(=O)NC3(CCC3)C(=O)N(C)[C@@H](C3CCCCC3)C(=O)N(C)[C@H](C(=O)N3CCCC3)CC(=O)N(C)[C@@H](CC(C)C)C(=O)N[C@@H]([C@@H](C)CC)C(=O)N(C)CC(=O)N(C)CC(=O)N(C)[C@@H](CC3CCCCC3)C(=O)N(C)CC(=O)N[C@@H](CCc3cc(F)c(C(F)(F)F)c(F)c3)C(=O)N2C1 [Compound 1366] ([NMeL]I[Sar][Sar][NMeCha][Sar][hPhe(3,5-F2-4-CF3)][Hyp](Et)[Ac4c][NMeChg][NMeD]-Pyrrolidide; lactam N-11) | 0.63 | ≤ 20
6 | C#CC[C@@H]1NC(=O)[C@H](CC(C)C)N(C)C(=O)C[C@@H](C(=O)N2CCCCC2)N(C)C(=O)[C@H](C(C)C)N(C)C(=O)C2(CCCC2)NC(=O)[C@@H]2CCCN2C(=O)[C@H](CCc2ccc(C(F)(F)F)c(Cl)c2)NC(=O)CN(C)C(=O)[C@H](CC2CCCCC2)N(C)C(=O)[C@@H]2CCN2C(=O)[C@H](C)N(C)C1=O [Compound 946] ([NMeL][Pra][NMeA][Aze][NMeCha][Sar][hPhe(3-Cl-4-CF3)]P[Ac5c][NMeV][NMeD]-Piperidide; lactam N-11) | 7.5 | > 500
7 | CCO[C@@H]1C[C@H]2C(=O)NC3(CCCC3)C(=O)N(C)[C@@H]([C@@H](C)CC)C(=O)N(C)[C@H](C(=O)N3CCCC3)CC(=O)N(C)[C@@H](CC(C)C)C(=O)N[C@@H]([C@@H](C)CC)C(=O)N(C)[C@@H](C)C(=O)N3CC[C@H]3C(=O)N(C)[C@@H](Cc3ccc(C(F)(F)F)cc3)C(=O)N(C)CC(=O)N[C@@H](CCc3cc(F)c(C(F)(F)F)c(F)c3)C(=O)N2C1 [Compound 1210] ([NMeL]I[NMeA][Aze][NMePhe(4-CF3)][Sar][hPhe(3,5-F2-4-CF3)][Hyp](Et)[Ac5c][NMeI][NMeD]-Pyrrolidide; lactam N-11) | 0.74 | ≤ 20
8 | CC[C@H](C)[C@@H]1NC(=O)[C@H](CC(C)C)N(C)C(=O)C[C@@H](C(=O)N2CCCCC2)N(C)C(=O)[C@H](C(C)C)N(C)C(=O)C2(CC2)NC(=O)[C@@H]2CCCN2C(=O)[C@H](CCc2ccc(C(F)(F)F)c(Cl)c2)NC(=O)CN(C)C(=O)[C@H](CC2CCCCC2)N(C)C(=O)[C@@H]2CCN2C(=O)[C@H](C)N(C)C1=O [Compound 1695] ([NMeL]I[NMeA][Aze][NMeCha][Sar][hPhe(3-Cl-4-CF3)]P[Ac3c][NMeV][NMeD]-Piperidide; lactam N-11) | 8 | > 500
9 | CC[C@H](C)[C@@H]1NC(=O)[C@H](CC(C)C)N(C)C(=O)C[C@@H](C(=O)N2CCCCC2)N(C)C(=O)[C@H](CC(C)C)NC(=O)C(C)(C)N(C)C(=O)[C@@H]2CCCCCC[C@@H](C(=O)N(C)CC(=O)N[C@@H](Cc3cccc(I)c3)C(=O)N2)N(C)C(=O)CN(C)C(=O)CN(C)C1=O [Compound 1411, (1S,7S,10S,14S,17S,26S,32S)-32-[(3-iodophenyl)methyl]-7,14-diisobutyl-3,4,4,9,13,19,22,25,28-nonamethyl-17-[(1S)-1-methylpropyl]-10-(piperidine-1-carbonyl)-3,6,9,13,16,19,22,25,28,31,34-undecazabicyclo[24.8.6]tetracontane-2,5,8,12,15,18,21,24,27,30,33-undecone] | 82 | > 500
10 | CC[C@H](C)[C@@H]1NC(=O)[C@H](CC(C)C)N(C)C(=O)C[C@@H](C)N(C)C(=O)[C@H](C2CCCC2)N(C)C(=O)C2(CCCC2)NC(=O)[C@@H]2CCCN2C(=O)[C@H](CCc2ccc(C(F)(F)F)c(Cl)c2)NC(=O)CN(C)C(=O)[C@H](Cc2ccc(C(F)(F)F)cc2)N(C)C(=O)[C@@H]2CCN2C(=O)[C@H](C)N(C)C1=O [Compound 587] (cyclo([Ac5c][NMeGly(cPent)][NMedβ3hAla][NMeL]I[NMeA][Aze][NMePhe(4-CF3)][Sar][hPhe(3-Cl-4-CF3)]P)) | 1.2 | ≤ 20
11 | CC[C@H](C)[C@@H]1NC(=O)[C@H](COCCC(C)C)N(C)C(=O)C[C@@H](C(=O)N2CCCCC2)N(C)C(=O)[C@H](C(C)C)N(C)C(=O)C2(CCCC2)NC(=O)[C@@H]2CCCN2C(=O)[C@H](CCc2ccc(C(F)(F)F)c(Cl)c2)NC(=O)CN(C)C(=O)[C@H](CC2CCCCC2)N(C)C(=O)[C@@H]2CCN2C(=O)[C@H](C)N(C)C1=O [Compound 661] ([NMeS](Isopentyl)I[NMeA][Aze][NMeCha][Sar][hPhe(3-Cl-4-CF3)]P[Ac5c][NMeV][NMeD]-Piperidide; lactam N-11) | 13 | > 500
12 | CC[C@H](C)[C@@H]1NC(=O)[C@H](CC(C)C)N(C)C(=O)C[C@@H](C(=O)N2CCCCC2)N(C)C(=O)[C@H](CC2CCCC2)N(C)C(=O)C2(CCCC2)NC(=O)[C@@H]2CCCN2C(=O)[C@H](CCc2ccc(C(F)(F)F)c(Cl)c2)NC(=O)CN(C)C(=O)[C@H](CC2CCCCC2)N(C)C(=O)[C@@H]2CCN2C(=O)[C@H](C)N(C)C1=O [Compound 1820] ([NMeL]I[NMeA][Aze][NMeCha][Sar][hPhe(3-Cl-4-CF3)]P[Ac5c][NMeAla(cPent)][NMeD]-Piperidide; lactam N-11) | 14 | > 500
13 | CCO[C@@H]1C[C@H]2C(=O)NC3(CCC3)C(=O)N(C)[C@@H](C3CCCC3)C(=O)N(C)[C@H](C)CC(=O)N(C)[C@@H](CC(C)C)C(=O)N[C@@H]([C@@H](C)CC)C(=O)N(C)[C@@H](C)C(=O)N3CC[C@H]3C(=O)N(CC)[C@@H](Cc3ccc(C)cc3)C(=O)N(C)CC(=O)N[C@@H](CCc3ccc(C(F)(F)F)c(Cl)c3)C(=O)N2C1 [Compound 713] (cyclo([Ac4c][NMeGly(cPent)][NMedβ3hAla][NMeL]I[NMeA][Aze][NEtPhe(4-Me)][Sar][hPhe(3-Cl-4-CF3)][Hyp](Et))) | 4 | ≤ 20
14 | CC[C@H](C)[C@@H]1NC(=O)[C@H](CC(C)C)N(C)C(=O)C[C@@H](C(=O)N(C)C)N(C)C(=O)[C@H]([C@@H](C)CC)N(C)C(=O)C2(CCCC2)NC(=O)[C@@H]2CCCN2C(=O)[C@H](CCc2cc(F)c(C(F)(F)F)c(F)c2)NC(=O)CN(C)C(=O)[C@H](Cc2ccc(C)cc2)N(C)C(=O)[C@@H]2CCN2C(=O)[C@H](C)N(C)C1=O [Compound 1080] ([NMeL]I[NMeA][Aze][NMePhe(4-Me)][Sar][hPhe(3,5-F2-4-CF3)]P[Ac5c][NMeI][NMeD]-NMe2; lactam N-11) | 1 | ≤ 20
15 | CC[C@H](C)[C@@H]1NC(=O)[C@H](CC(C)C)N(C)C(=O)C[C@@H](C)N(C)C(=O)[C@H](CC(C)C)NC(=O)C(C)(C)N(C)C(=O)[C@H](CC(C)C)NC(=O)[C@H](CCc2ccc(C(F)(F)F)c(Cl)c2)NC(=O)CN(C)C(=O)[C@H](Cc2ccc(C)cc2)N(C)C(=O)CN(C)C(=O)CN(C)C1=O [Compound 1388] (cyclo(I[Sar][Sar][NMePhe(4-Me)][Sar][hPhe(3-Cl-4-CF3)]L[NMeAib]L[NMedβ3hAla][NMeL])) | 10 | > 500
